The assay has as its system 8XTBD luciferase reporter (YAP reporter) in HEK293T cells. Put plainly: YAP Reporter Assay. The conditions noted are these: Homo sapiens, HEK-293T; HEK293T cells stably transfected with 8XTBD luciferase reporter and pRLTK; 24-hr incubation; top concentration 3 μM; read-out: Firefly Luciferase IC50. Format: cell-based. The procedure, abridged: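 HEK293T cells stably carrying 8XTBD firefly luciferase and TK-renilla (3×10^3 cells/well) dosed 3-4 h after plating with compounds from 3 μM final, 1:3 dilution, 10 points, quadruplicates. After 24 h at 37° C, Dual-Glo readings gave IC50 and maximum inhibition reported separately for firefly and renilla.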
As usually defined, the IC50 is the point on the concentration scale where inhibition reaches its midpoint. On to `N#Cc1cccc(CNC(=O)c2ccc3c(-c4ccc(C(F)(F)F)cc4)cccc3c2)n1` [Compound 191, N-((6-cyanopyridin-2-yl)methyl)-5-(4-(trifluoromethyl)phenyl)-2-naphthamide], for which the IC50 was in the range of 100 to 1000 nM.

On to `O=C(NCc1cccc(COc2ccon2)c1)c1ccc2c(-c3ccc(C(F)(F)F)cc3)cccc2c1` [Compound 192, N-(3-((isoxazol-3-yloxy)methyl)benzyl)-5-(4-(trifluoromethyl)phenyl)-2-naphthamide], for which the IC50 fell in the range of 100 to 1000 nM.

Turning to `O=C(NCc1ncsn1)c1ccc2c(-c3ccc(C(F)(F)F)cc3)cccc2c1` [Compound 193, N-((1,2,4-thiadiazol-3-yl)methyl)-5-(4-(trifluoromethyl)phenyl)-2-naphthamide], the IC50 was less than 100 nM. For `C[C@H](NC(=O)c1ccc2c(-c3ccc(C(F)(F)F)cc3)cccc2c1)c1cn(C)cn1` [Compound 195, (S)—N-(1-(1-methyl-1H-imidazol-4-yl)ethyl)-5-(4-(trifluoromethyl)phenyl)-2-naphthamide], the IC50 was less than 100 nM. For `C[C@@H](NC(=O)c1ccc2c(-c3ccc(C(F)(F)F)cc3)cccc2c1)c1cn(C)cn1` [Compound 196, (R)—N-(1-(1-methyl-1H-imidazol-4-yl)ethyl)-5-(4-(trifluoromethyl)phenyl)-2-naphthamide], the IC50 was in the range of 100 to 1000 nM.

Turning to `O=C(NC(CO)Cc1ccccn1)c1ccc2c(-c3ccc(C(F)(F)F)cc3)cccc2c1` (stereo not drawn) [Compound 197, N-(1-hydroxy-3-(pyridin-2-yl)propan-2-yl)-5-(4-(trifluoromethyl)phenyl)-2-naphthamide], the IC50 lay in the range of 100 to 1000 nM.

Regarding `O=C(NCCC/C=C/COc1ccon1)c1ccc2c(-c3ccc(C(F)(F)F)cc3)cccc2c1` [Compound 198, N-[(E)-6-isoxazol-3-yloxyhex-4-enyl]-5-[4-(trifluoromethyl)phenyl]naphthalene-2-carboxamide], the IC50 was less than 100 nM. Take `CC(=O)N1CC([C@@H](C)NC(=O)c2ccc3c(-c4ccc(C(F)(F)F)cc4)cccc3c2)C1` [Compound 199, (R)—N-(1-(1-acetylazetidin-3-yl)ethyl)-5-(4-(trifluoromethyl)phenyl)-2-naphthamide]: the half-maximal inhibitory concentration (IC50) lay in the range of 100 to 1000 nM. With `CC(=O)N1CC([C@H](C)NC(=O)c2ccc3c(-c4ccc(C(F)(F)F)cc4)cccc3c2)C1` [Compound 200, (S)—N-(1-(1-acetylazetidin-3-yl)ethyl)-5-(4-(trifluoromethyl)phenyl)-2-naphthamide] the figure was 100 to 1000 nM; with `CC(NC(=O)c1ccc2c(-c3ccc(C(F)(F)F)cc3)cccc2c1)c1nsc(C(N)=O)n1` (stereo not drawn) [Compound 201, 3-(1-(5-(4-(Trifluoromethyl)phenyl)-2-naphthamido)ethyl)-1,2,4-thiadiazole-5-carboxamide], less than 100 nM. Consider `NC(=O)/C=C/CCCNC(=O)c1ccc2c(-c3ccc(C(F)(F)F)cc3)cccc2c1` [Compound 202, N-[(E)-6-amino-6-oxo-hex-4-enyl]-5-[4-(trifluoromethyl)phenyl]naphthalene-2-carboxamide], for which the IC50 was 100 to 1000 nM. As for `C[C@@H](NC(=O)c1ccc2c(-c3ccc(C(F)(F)F)cc3)cccc2c1)C1CNC1` [Compound 203, (R)—N-(1-(azetidin-3-yl)ethyl)-5-(4-(trifluoromethyl)phenyl)-2-naphthamide], the IC50 is less than 100 nM.

Take `C[C@H](NC(=O)c1ccc2c(-c3ccc(C(F)(F)F)cc3)cccc2c1)C1CNC1` [Compound 204, (S)—N-(1-(azetidin-3-yl)ethyl)-5-(4-(trifluoromethyl)phenyl)-2-naphthamide]: the IC50 fell in the range of 100 to 1000 nM. For the compound `C[C@@H](NC(=O)c1ccc2c(-c3ccc(C(F)(F)F)cc3)cccc2c1)c1ccccc1Cl` [Compound 206, (R)—N-(1-(2-chlorophenyl)ethyl)-5-(4-(trifluoromethyl)phenyl)-2-naphthamide], the IC50 was less than 100 nM.

For the compound `COCCOc1cccc(CNC(=O)c2ccc3c(-c4ccc(C(F)(F)F)cc4)cccc3c2)c1` [Compound 208, N-(3-(2-methoxyethoxy)benzyl)-5-(4-(trifluoromethyl)phenyl)-2-naphthamide], the IC50 is less than 100 nM.

For `O=C(O)/C=C/CCNC(=O)c1ccc2c(-c3ccc(C(F)(F)F)cc3)cccc2c1` [Compound 209, (E)-5-[[5-[4-(trifluoromethyl)phenyl]naphthalene-2-carbonyl]amino]pent-2-enoic Acid], the IC50 lay within 1000 to 3000 nM.

Turning to `COc1cc(CNC(=O)c2ccc3c(-c4ccc(C(F)(F)F)cc4)cccc3c2)ccn1` [Compound 210, N-((2-methoxypyridin-4-yl)methyl)-5-(4-(trifluoromethyl)phenyl)-2-naphthamide], the IC50 lay in the range of 100 to 1000 nM. For `O=C(NCc1ccnc(F)c1)c1ccc2c(-c3ccc(C(F)(F)F)cc3)cccc2c1` [Compound 211, N-((2-fluoropyridin-4-yl)methyl)-5-(4-(trifluoromethyl)phenyl)-2-naphthamide], the half-maximal inhibitory concentration (IC50) is less than 100 nM. For `COCC(C)(C)NC(=O)c1ccc2c(-c3ccc(C(F)(F)F)cc3)cccc2c1` [Compound 212, N-(1-methoxy-2-methylpropan-2-yl)-5-(4-(trifluoromethyl)phenyl)-2-naphthamide], the concentration for half-maximal inhibition (IC50) is less than 100 nM.

Take `C[C@@H](NC(=O)c1ccc2c(-c3ccc(C(F)(F)F)cc3)cccc2c1)c1cc(N)ccn1` [Compound 213, (R)—N-(1-(4-aminopyridin-2-yl)ethyl)-5-(4-(trifluoromethyl)phenyl)-2-naphthamide]: the IC50 was in the range of 100 to 1000 nM.

Turning to `C[C@H](NC(=O)c1ccc2c(-c3ccc(C(F)(F)F)cc3)cccc2c1)c1cc(N)ccn1` [Compound 214, (S)—N-(1-(4-aminopyridin-2-yl)ethyl)-5-(4-(trifluoromethyl)phenyl)-2-naphthamide], the IC50 is 1000 to 3000 nM. For the compound `N#Cc1cccc(CNC(=O)c2ccc3c(-c4ccc(C(F)(F)F)cc4)cccc3c2)c1` [Compound 215, N-(3-cyanobenzyl)-5-(4-(trifluoromethyl)phenyl)-2-naphthamide], the IC50 was less than 100 nM.

Take `N#C/C=C\CCNC(=O)c1ccc2c(-c3ccc(C(F)(F)F)cc3)cccc2c1` [Compound 216, N—[(Z)-4-cyanobut-3-enyl]-5-[4-(trifluoromethyl)phenyl]naphthalene-2-carboxamide]: the IC50 fell in the range of 100 to 1000 nM.

For `N#C/C=C/CCNC(=O)c1ccc2c(-c3ccc(C(F)(F)F)cc3)cccc2c1` [Compound 217, N-[(E)-4-cyanobut-3-enyl]-5-[4-(trifluoromethyl)phenyl]naphthalene-2-carboxamide], the IC50 is less than 100 nM.

Take `C[C@@H](NC(=O)c1ccc2c(-c3ccc(C(F)(F)F)cc3)cccc2c1)c1cccnc1N` [Compound 218, (R)—N-[1-(2-amino-3-pyridyl)ethyl]-5-[4-(trifluoromethyl)phenyl]naphthalene-2-carboxamide]: the IC50 was less than 100 nM.

Regarding `O=C(NCc1ncns1)c1ccc2c(-c3ccc(C(F)(F)F)cc3)cccc2c1` [Compound 220, N-((1,2,4-thiadiazol-5-yl)methyl)-5-(4-(trifluoromethyl)phenyl)-2-naphthamide], the IC50 is less than 100 nM. In the case of `Cc1nsc(CNC(=O)c2ccc3c(-c4ccc(C(F)(F)F)cc4)cccc3c2)n1` [Compound 221, N-((3-methyl-1,2,4-thiadiazol-5-yl)methyl)-5-(4-(trifluoromethyl)phenyl)-2-naphthamide], the half-inhibitory concentration (IC50) was less than 100 nM. On to `NC(=O)/C=C/CCNC(=O)c1ccc2c(-c3ccc(C(F)(F)F)cc3)cccc2c1` [Compound 222, N-[(E)-5-amino-5-oxo-pent-3-enyl]-5-[4-(trifluoromethyl)phenyl]naphthalene-2-carboxamide], for which the IC50 was less than 100 nM.

Regarding `C[C@@H](NC(=O)c1ccc2c(-c3ccc(C(F)(F)F)cc3)cccc2c1)c1cc(N(C)C)ccn1` [Compound 223, (R)—N-(1-(4-(dimethylamino)pyridin-2-yl)ethyl)-5-(4-(trifluoromethyl)phenyl)-2-naphthamide], the IC50 fell in the range of 100 to 1000 nM. For `C[C@H](NC(=O)c1ccc2c(-c3ccc(C(F)(F)F)cc3)cccc2c1)c1cc(N(C)C)ccn1` [Compound 224, (S)—N-(1-(4-(dimethylamino)pyridin-2-yl)ethyl)-5-(4-(trifluoromethyl)phenyl)-2-naphthamide], the IC50 was in the range of 1000 to 3000 nM. Take `CC(NC(=O)c1ccc2c(-c3ccc(C(F)(F)F)cc3)cccc2c1)c1cc(Br)ccn1` (stereo not drawn) [Compound 225, N-(1-(4-bromopyridin-2-yl)ethyl)-5-(4-(trifluoromethyl)phenyl)-2-naphthamide]: the IC50 is less than 100 nM. Regarding `N#C/C=C/CCCNC(=O)c1ccc2c(-c3ccc(C(F)(F)F)cc3)cccc2c1` [Compound 227, N-[(E)-5-cyanopent-4-enyl]-5-[4-(trifluoromethyl)phenyl]naphthalene-2-carboxamide], the half-maximal inhibitory concentration (IC50) was less than 100 nM. As to `N#C/C=C\CCCNC(=O)c1ccc2c(-c3ccc(C(F)(F)F)cc3)cccc2c1` [Compound 228, N—[(Z)-5-cyanopent-4-enyl]-5-[4-(trifluoromethyl)phenyl]naphthalene-2-carboxamide], the half-maximal inhibitory concentration (IC50) was less than 100 nM. As for `O=C(NCc1ccncc1)c1ccc2c(-c3ccc(C(F)(F)F)cc3)cccc2c1` [Compound 229, N-(pyridin-4-ylmethyl)-5-(4-(trifluoromethyl)phenyl)-2-naphthamide], the IC50 was less than 100 nM.

`COC(=O)/C=C/CCNC(=O)c1ccc2c(-c3ccc(C(F)(F)F)cc3)cccc2c1` [Compound 230, methyl (E)-5-[[5-[4-(trifluoromethyl)phenyl]naphthalene-2-carbonyl]amino]pent-2-enoate]: the IC50 lay within 100 to 1000 nM.

Consider `N#CC(O)CCCCNC(=O)c1ccc2c(-c3ccc(C(F)(F)F)cc3)cccc2c1` (stereo not drawn) [Compound 231, N-(5-cyano-5-hydroxy-pentyl)-5-[4-(trifluoromethyl)phenyl]naphthalene-2-carboxamide], for which the IC50 was 100 to 1000 nM.

The record behind these values is patent publication US11866431B2, “Bicyclic compounds” (Vivace Therapeutics, Inc., priority 2018, dated 2024).
